How the values were obtained:
proximal jejunum = assay: In situ jejunal perfusion, OCT absorption into portal vein blood; type: in vivo, rat; conditions: for AUC, % of the correspondent control group (Group A1): PH rats; for AUC, % of the correspondent control group (Group A1) / AUC, % of the correspondent control (Group A; OCT only): portal vein blood 5-60 min; for AUC, % of the correspondent control (Group A; OCT only): healthy rats
Procedure: The experimental procedure was performed as previously reported. Briefly, the mean length of the proximal jejunum (approximately 2 cm distal to the ligament of Treitz) was 10 ± 1 cm. An oxygenated Krebs–Ringer bicarbonate buffer (KRB) solution (pH 7.4) containing 0.5 mM MgCl2, 4.5 mM KCl, 120 mM NaCl, 0.7 mM Na2HPO4, 1.5 mM NaH2PO4, 1.2 mM CaCl2, 15 mM NaHCO3, and 10 mM glucose was perfused at a flow rate of 0.4 mL/min using a peristaltic pump through an inlet tube kept at 37 °C. […] The AUC was calculated using the integral method. These experiments were performed both in healthy and PH rats; the latter was called Group A1, B1, C1, and D1 (n = 4 per group).
(§1) Frozen samples were thawed at room temperature prior to their preparation. A 200-µL aliquot of cell lysate containing 1 mL Tris, 99 mL D-Hank’s, and 200 µL methyl cyanide was mixed with the sample obtained from Caco-2 experiments. The mixture was then vortexed for 1 min and centrifuged at 12,000×g for 10 min. The supernatant was transferred to a clean glass tube and evaporated to dryness at 40 °C under nitrogen. A 10-μL aliquot was injected for LC − MS/MS analysis. A total of 200 μL methanol was added to a 50-μL sample of plasma, and the mixture was vortexed and centrifuged as described above to remove precipitated proteins. A total of 200 μL supernatant was transferred and evaporated as described for the Caco-2 samples. The residue was then diluted with 100 μL mobile phase and an aliquot of 10 μL was used for LC − MS/MS analysis.
(§2) Isocratic chromatographic separation was performed using a Hypersil BDS-C18 column (150 mm × 4.6 mm i.d., 5 µm; Dalian Elite Analytical Instruments Co. Ltd., China) maintained at room temperature. A mixture of 40% methanol-60% water with 0.1% formic acid (60:40, v/v) was used as the mobile phase at a flow rate of 0.5 mL/min. An API 3200 triple-quadrupole mass spectrometer (Applied Biosystems, Concord, Ontario, Canada) was operated with a Turbo Ionspray interface in positive ion mode. The ion spray voltage was set to + […], heater gas temperature to 500 °C, nebulizer gas (Gas 1) at 40 psi, heater gas (Gas 2) at 40 psi, curtain gas at 10 psi, and collision gas at 16 psi.

jejunum everted sac = assay: In vitro everted intestinal sac preparation, OCT uptake; type: in vitro ADME, rat; conditions: for AUC, % of the correspondent control group (Group A1): PH rats; for AUC, % of the correspondent control group (Group A1) / AUC, % of the correspondent control group (Group A): sac lumen 10-120 min; for AUC, % of the correspondent control group (Group A): healthy rats
Procedure: Rat jejunum (10 ± 1 cm) was transected approximately 2 cm distal to the ligament of Treitz. […] The AUC was calculated using the trapezoid method. These experiments were performed in both control and PH rats; the latter was called Group A1, B1, C1, and D1 (n = 4 per group).
as §2

[1] = Bi-directional Caco-2 permeability (transport) assay; type: in vitro ADME, human
Procedure: (§3) Caco-2 cells (purchased from the Type Culture Collection of the Chinese Academy of Sciences, Shanghai, China) at passage 30 to 33 were used in this study. Cells were routinely cultured as previously described with minor modifications. Cells were seeded onto Transwell inserts in 12-well dishes at a density of 5 × 10^5 cells/well (#3401; 0.4 µm pore size, growth area of 1.13 cm^2, Corning, NY, USA), and the medium was replaced with D-Hanks solution every other day except for the treatment days.
Cell monolayer integrity was evaluated through the transepithelial electrical resistance (TEER) using a Millicell ERS resistance system (Millipore, Bedford, MA, USA) at 37 °C. Each TEER value was corrected for background resistance determined on an extracellular matrix-coated cell culture insert without cells.
Caco-2 transport study was performed as previously described. […] A to B assay was performed to determine the extent of OCT absorption, while B to A assay was performed to measure OCT secretion. As regard A to B assay, the apical (upper) chamber was filled with 1.6 mL test drug solution in HBSS, while the receiver basolateral (lower) compartment was filled with 0.6 mL HBSS alone. Conversely, in B to A assay the upper and lower chambers were filled with 0.6 mL HBSS and 1.6 mL test drug, respectively. […] The TEER value was determined at different incubation times to verify the integrity of the monolayer after buffer change. […] The permeability direction rate (PDR) was calculated by the ratio of Papp in the B to A direction versus that in the A to B direction, as follows: PDR=Papp(BtoA)/Papp(AtoB)
as §1, §2

Caco-2 cells = type: cell-based, human; conditions: OCT concentrations of 1, 10, and 50 µM; data not shown
Procedure: as §3

CYP3A = assay: OCT metabolism by CYP3A in rat intestinal microsomes; type: in vitro ADME
Procedure: Microsomes from the small intestine of healthy rats and PH rats were obtained as previously described, and their protein concentration (0.53 ± 0.05 mg/mL and 0.52 ± 0.06 mg/mL total protein, respectively) was measured using the BCA method (Beijing Solarbio Science & Technology Co., Ltd). […] CYP3A activity was measured using a fluorescent quantitative detection kit (Genmed Scientifics Inc., U.S.A.) with the NADPH regenerating system after pre-incubation at 37 °C for 0, 2, 10, 20 or 30 min. […] The organic phase was evaporated to dryness and the OCT content in the residue was measured by LC–MS/MS.
Each sample was tested 3 times.
as §2

recombinant human CYP3A4 [2] = molecular target: T1, recombinant human CYP3A4 (Homo sapiens, UniProt P08684); assay: OCT metabolism by recombinant human cytochrome P450 3A4; type: in vitro ADME; conditions: 10 min incubation, CYP3A4 2.5 mg/mL, NADPH; many different metabolites by LC–MS/MS
T1 construct: purchased BD Gentest (Supersomes)
Procedure: All incubations were performed at 37 °C in a water bath. Recombinant human cDNA-expressing P450 isozyme 3A4 (BD Gentest Supersomes) was carefully thawed on ice prior to each experiment. […] […] Control samples without NADPH and samples without OCT were also included. […] Each sample was tested 4 times.
as §2

recombinant human CYP3A4 [3] = molecular target: T1, recombinant human CYP3A4; assay: CYP3A4 activity with and without OCT incubation (fluorescent quantitative detection kit); type: biochemical; conditions: OCT 400 mM
Procedure: All incubations were performed at 37 °C in a water bath. Recombinant human cDNA-expressing P450 isozyme 3A4 (BD Gentest Supersomes) was carefully thawed on ice prior to each experiment. […] After a 5-min pre-incubation at 37 °C, the reaction was started by the addition of NADPH and ended 30 min later by the addition of 500 µL methanol. Control samples without NADPH and samples without OCT were also included. […] Each sample was tested 4 times.

[4] = 10 µM OCT alone, PH rats versus healthy rats
[5] = 10 µM OCT plus 1 mM probenecid (Group C1)
[6] = 10 µM OCT plus 1 mM verapamil hydrochloride (Group B1)
[7] = 10 µM OCT plus 1 mM verapamil hydrochloride plus 1 mM probenecid (Group D1)
[8] = 10 µM OCT plus 1 mM probenecid (Group C)
[9] = 10 µM OCT plus 1 mM verapamil hydrochloride (Group B)
[10] = 10 µM OCT plus 1 mM verapamil hydrochloride plus 1 mM probenecid (Group D)
[11] = Caco-2, OCT 1 μM, Control (no inhibitor)
[12] = Caco-2, OCT 1 μM, MRP2 and P-gp inhibition
[13] = Caco-2, OCT 1 μM, MRP2 inhibition (probenecid 1 mM)
[14] = Caco-2, OCT 1 μM, P-gp inhibition (rhodamine 123 1 mM)
[15] = Caco-2, OCT 10 μM, Control (no inhibitor)
[16] = Caco-2, OCT 10 μM, MRP2 and P-gp inhibition
[17] = Caco-2, OCT 10 μM, MRP2 inhibition (probenecid 1 mM)
[18] = Caco-2, OCT 10 μM, P-gp inhibition (rhodamine 123 1 mM)
[19] = Caco-2, OCT 50 μM, Control (no inhibitor)
[20] = Caco-2, OCT 50 μM, MRP2 and P-gp inhibition
[21] = Caco-2, OCT 50 μM, MRP2 inhibition (probenecid 1 mM)
[22] = Caco-2, OCT 50 μM, P-gp inhibition (rhodamine 123 1 mM)

T1 sequence (P08684 whole entry): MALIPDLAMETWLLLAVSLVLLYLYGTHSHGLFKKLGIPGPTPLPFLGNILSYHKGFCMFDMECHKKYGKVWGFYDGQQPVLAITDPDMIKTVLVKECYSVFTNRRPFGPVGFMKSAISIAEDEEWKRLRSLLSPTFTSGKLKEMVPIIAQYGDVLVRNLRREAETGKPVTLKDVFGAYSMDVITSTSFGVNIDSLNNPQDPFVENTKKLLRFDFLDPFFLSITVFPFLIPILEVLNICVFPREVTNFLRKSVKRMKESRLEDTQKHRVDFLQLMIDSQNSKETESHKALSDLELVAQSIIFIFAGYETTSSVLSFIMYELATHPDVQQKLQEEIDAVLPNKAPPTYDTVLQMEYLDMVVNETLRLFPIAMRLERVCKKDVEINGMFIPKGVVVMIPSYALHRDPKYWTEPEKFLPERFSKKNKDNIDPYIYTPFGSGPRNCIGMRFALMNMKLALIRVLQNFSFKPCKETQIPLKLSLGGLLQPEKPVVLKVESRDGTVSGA

Q: Which “AUC of group A1 as % of group A” value (proximal jejunum; [4]) does the source give for `C[C@@H](O)[C@@H]1NC(=O)[C@H](CCCCN)NC(=O)[C@@H](Cc2c[nH]c3ccccc23)NC(=O)[C@H](Cc2ccccc2)NC(=O)[C@@H](NC(=O)[C@H](N)Cc2ccccc2)CSSC[C@@H](C(=O)N[C@H](CO)[C@@H](C)O)NC1=O` [OCT, octreotide] here?
A: 96%

Q: And the “AUC, % of the correspondent control group (Group A1)” value (“AUC, % … (Group A1)” for short) (proximal jejunum; [5])?
A: 236.28%

Q: And the “AUC, % … (Group A1)” value (proximal jejunum; [6])?
A: 384.61%

Q: And the “AUC, % … (Group A1)” value (proximal jejunum; [7])?
A: 461.78%

Q: And the “AUC, % of the correspondent control (Group A; OCT only)” value (“AUC, % … (Group A; OCT only)” below) (proximal jejunum; [8])?
A: 418.95%

Q: And the “AUC, % … (Group A; OCT only)” value (proximal jejunum; [9])?
A: 521.08%

Q: And the “AUC, % … (Group A; OCT only)” value (proximal jejunum; [10])?
A: 618.40%

Q: And the “AUC of group A1 as % of group A” value (jejunum everted sac; [4])?
A: 21.54%

Q: What about the “AUC, % … (Group A1)” value (jejunum everted sac; [5]) of the same molecule?
A: 128.23%

Q: And the “AUC, % … (Group A1)” value (jejunum everted sac; [6])?
A: 151.82%

Q: What about the “AUC, % … (Group A1)” value (jejunum everted sac; [7]) of the same molecule?
A: 165.33%

Q: What about the “AUC, % of the correspondent control group (Group A)” value (from here on “AUC, % … (Group A)”) (jejunum everted sac; [8]) of the same molecule?
A: 151.39%

Q: And the “AUC, % … (Group A)” value (jejunum everted sac; [9])?
A: 176.22%

Q: What about the “AUC, % … (Group A)” value (jejunum everted sac; [10]) of the same molecule?
A: 220.63%

Q: What about the Papp A→B [1, 11] of the same molecule?
A: 0.005 ± 0.001 ×10⁻⁶ cm/s

Q: What about the Papp B→A [1, 11] of the same molecule?
A: 0.021 ± 0.003 ×10⁻⁶ cm/s

Q: What about the Papp A→B [1, 12] of the same molecule?
A: 0.022 ± 0.002 ×10⁻⁶ cm/s

Q: What about the Papp B→A [1, 12] of the same molecule?
A: 0.006 ± 0.001 ×10⁻⁶ cm/s

Q: What about the Papp A→B [1, 13] of the same molecule?
A: 0.007 ± 0.001 ×10⁻⁶ cm/s

Q: And the Papp B→A [1, 13]?
A: 0.006 ± 0.001 ×10⁻⁶ cm/s

Q: What about the Papp A→B [1, 14] of the same molecule?
A: 0.01 ± 0.001 ×10⁻⁶ cm/s

Q: And the Papp B→A [1, 14]?
A: 0.012 ± 0.002 ×10⁻⁶ cm/s

Q: And the Papp A→B [1, 15]?
A: 0.127 ± 0.015 ×10⁻⁶ cm/s

Q: And the Papp B→A [1, 15]?
A: 0.565 ± 0.073 ×10⁻⁶ cm/s

Q: And the Papp A→B [1, 16]?
A: 0.368 ± 0.055 ×10⁻⁶ cm/s

Q: What about the Papp B→A [1, 16] of the same molecule?
A: 0.193 ± 0.021 ×10⁻⁶ cm/s

Q: And the Papp A→B [1, 17]?
A: 0.149 ± 0.016 ×10⁻⁶ cm/s

Q: And the Papp B→A [1, 17]?
A: 0.31 ± 0.025 ×10⁻⁶ cm/s

Q: What about the Papp A→B [1, 18] of the same molecule?
A: 0.168 ± 0.018 ×10⁻⁶ cm/s

Q: What about the Papp B→A [1, 18] of the same molecule?
A: 0.297 ± 0.024 ×10⁻⁶ cm/s

Q: And the Papp A→B [1, 19]?
A: 0.23 ± 0.021 ×10⁻⁶ cm/s

Q: What about the Papp B→A [1, 19] of the same molecule?
A: 1.33 ± 0.16 ×10⁻⁶ cm/s

Q: What about the Papp A→B [1, 20] of the same molecule?
A: 1.73 ± 0.138 ×10⁻⁶ cm/s

Q: And the Papp B→A [1, 20]?
A: 0.981 ± 0.082 ×10⁻⁶ cm/s

Q: And the Papp A→B [1, 21]?
A: 0.353 ± 0.032 ×10⁻⁶ cm/s

Q: And the Papp B→A [1, 21]?
A: 1.13 ± 0.097 ×10⁻⁶ cm/s

Q: And the Papp A→B [1, 22]?
A: 1.19 ± 0.072 ×10⁻⁶ cm/s

Q: And the Papp B→A [1, 22]?
A: 1.04 ± 0.084 ×10⁻⁶ cm/s

Q: And the “Caco-2 cell death (LDH-cytotoxicity assay)” value (Caco-2 cells)?
A: No sign of Caco-2 cell death

Q: What about the “OCT level, PH + OCT group versus N + OCT group” value (CYP3A; intestinal microsomes of PH versus healthy rats, OCT 1000 ng/mL, 37 °C, p < 0.05) of the same molecule?
A: significantly lower

Q: What about the “OCT level in the presence of the CYP3A inhibitor ketoconazole” value (CYP3A; intestinal microsomes of healthy and PH rats, OCT 1000 ng/mL, ketoconazole 10 µM, p < 0.01) of the same molecule?
A: significantly and equally increased

Q: What about the “Metabolism of OCT by CYP3A” value (CYP3A; rat intestinal microsomes, NADPH-generating system) of the same molecule?
A: metabolized by CYP3A

Q: And the “Metabolism of OCT by recombinant human CYP3A4” value (recombinant human CYP3A4 [2])?
A: CYP3A4 metabolized OCT

Q: And the “Change in activity of recombinant human CYP3A4 after pre-incubation with OCT” value (recombinant human CYP3A4 [3])?
A: No changes
